Measured values reported in patent US10189853B2, “Conformationally restricted 4-substituted-2,6-dimethylfuro[2,3-d]pyrimidines as anti-tumor agents” (DUQUESNE UNIVERSITY OF THE HOLY SPIRIT, priority 2014, dated 2019).

Key:
[1] = system: M6/6 cells (SK-OV-3 expressing Pgp); test: Antiproliferative SRB assay; conditions: M6/6 (Pgp) vs SKOV3
[2] = system: MDA-MB-435; test: NCI 60 cell line panel; format: cell-based; conditions: Homo sapiens, Melanoma
[3] = system: SF-295; test: NCI 60 cell line panel; format: cell-based; conditions: Homo sapiens, CNS Cancer
[4] = molecular target: PDGFR-β (Homo sapiens (Human), UniProt P09619); test: PDGFR-β kinase inhibition, phosphotyrosine ELISA cytoblot; format: cell-based
Procedure: Cells used were tumor cell lines naturally expressing high levels of EGFR (A431), VEGFR-2 (U251), and PDGFR-β (SH-SYSY). […] The reaction was stopped and cells were permeabilized by quickly removing the media from the cells and adding ice-cold Tris-buffered saline (TBS) containing 0.05% Triton X-100, protease inhibitor cocktail and tyrosine phosphatase inhibitor cocktail. The TBS solution was then removed and cells fixed to the plate for 30 min at 60° C. and further incubation in 70% ethanol for an additional 30 min. Cells were further exposed to block (TBS with 1% BSA) for 1 h, washed, and then a horseradish peroxidase (HRP)-conjugated phosphotyrosine (PY) antibody was added overnight.

[5] = system: MDA-MB-468; test: NCI 60 cell line panel; format: cell-based; conditions: Homo sapiens, Breast Cancer
[6] = system: NCI/ADR-RES; test: NCI 60 cell line panel; format: cell-based; conditions: Homo sapiens, Ovarian cancer
[7] = system: HL-60(TB); test: NCI 60 cell line panel; format: cell-based; conditions: Homo sapiens, Leukemia
[8] = system: NCI-H226; test: NCI 60 cell line panel; format: cell-based; conditions: Homo sapiens, NSCLC
[9] = system: NCI-H460; test: NCI 60 cell line panel; format: cell-based; conditions: Homo sapiens, NSCLC
[10] = system: CAKI-1; test: NCI 60 cell line panel; format: cell-based; conditions: Homo sapiens, Renal Cancer
[11] = system: SF-268; test: NCI 60 cell line panel; format: cell-based; conditions: Homo sapiens, CNS Cancer
[12] = system: IGROV1; test: NCI 60 cell line panel; format: cell-based; conditions: Homo sapiens, IGROV-1, Ovarian cancer
[13] = system: SR; test: NCI 60 cell line panel; format: cell-based; conditions: Homo sapiens, Leukemia
[14] = system: MALME-3M; test: NCI 60 cell line panel; format: cell-based; conditions: Homo sapiens, Melanoma
[15] = system: A549/ATCC; test: NCI 60 cell line panel; format: cell-based; conditions: Homo sapiens, NSCLC
[16] = system: A498; test: NCI 60 cell line panel; format: cell-based; conditions: Homo sapiens, Renal Cancer
[17] = system: colchicine site on tubulin; test: Inhibition of [3H]colchicine binding
[18] = system: RPMI-8226; test: NCI 60 cell line panel; format: cell-based; conditions: Homo sapiens, Leukemia
[19] = system: SK-MEL-28; test: NCI 60 cell line panel; format: cell-based; conditions: Homo sapiens, Melanoma
[20] = system: NCI-H322M; test: NCI 60 cell line panel; format: cell-based; conditions: Homo sapiens, NSCLC

Sequence of PDGFR-β (P09619 33-1106): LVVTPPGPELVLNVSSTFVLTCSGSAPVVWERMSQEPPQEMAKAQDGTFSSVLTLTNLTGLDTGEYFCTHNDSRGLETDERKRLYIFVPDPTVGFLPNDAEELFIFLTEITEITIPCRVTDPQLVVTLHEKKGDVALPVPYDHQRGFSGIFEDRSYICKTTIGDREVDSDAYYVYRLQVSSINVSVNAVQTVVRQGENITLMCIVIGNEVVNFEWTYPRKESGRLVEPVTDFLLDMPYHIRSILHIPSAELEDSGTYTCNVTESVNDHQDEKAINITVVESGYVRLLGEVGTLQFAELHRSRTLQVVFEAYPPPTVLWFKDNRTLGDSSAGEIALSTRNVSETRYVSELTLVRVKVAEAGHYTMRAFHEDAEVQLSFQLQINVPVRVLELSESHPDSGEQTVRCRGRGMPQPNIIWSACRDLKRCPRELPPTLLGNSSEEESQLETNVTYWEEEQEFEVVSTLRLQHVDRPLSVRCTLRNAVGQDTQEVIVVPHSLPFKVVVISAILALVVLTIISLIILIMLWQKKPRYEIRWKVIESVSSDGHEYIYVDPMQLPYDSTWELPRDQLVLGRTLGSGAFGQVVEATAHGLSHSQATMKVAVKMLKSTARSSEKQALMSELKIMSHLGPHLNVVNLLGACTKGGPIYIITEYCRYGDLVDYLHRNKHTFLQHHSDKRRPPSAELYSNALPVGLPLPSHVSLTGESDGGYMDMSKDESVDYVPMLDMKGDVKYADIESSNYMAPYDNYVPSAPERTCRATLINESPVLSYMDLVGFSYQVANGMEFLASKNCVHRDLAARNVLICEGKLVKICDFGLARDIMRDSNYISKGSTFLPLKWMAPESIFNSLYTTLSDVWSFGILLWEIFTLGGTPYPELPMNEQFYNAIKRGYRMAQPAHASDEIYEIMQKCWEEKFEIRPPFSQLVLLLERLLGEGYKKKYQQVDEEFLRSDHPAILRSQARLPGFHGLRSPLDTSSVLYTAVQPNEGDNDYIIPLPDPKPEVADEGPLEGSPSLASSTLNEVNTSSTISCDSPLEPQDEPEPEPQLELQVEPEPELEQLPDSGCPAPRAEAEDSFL

SMILES	GI50 [2] [nM]	GI50 [3] [nM]	GI50 [5] [nM]	GI50 [6] [nM]	GI50 [7] [nM]	GI50 [8] [nM]	GI50 [9] [nM]	GI50 [10] [nM]	GI50 [11] [nM]	GI50 [12] [nM]	further results
Cc1nc(N(C)c2ccc3occc3c2)c2cc(C)oc2n1 [Compound 7, N-1-benzofuran-5-yl-N,2,6-trimethylfuro[2,3-d]pyrimidin-4-amine]	21.1	41.7	31.5	37.6	41.2	217	138	57.9	527	142	Rr value (relative resistance) [1]: 1.2; IC50 ([4]; SH-SY5Y cells, phosphotyrosine ELISA): 25 ± 4.8 nM; fold better than sunitinib, PDGFR-β ([4]; vs sunitinib): about 4 fold; GI50 [13]: 62.4 nM
COc1ccc2c(c1)CCCN2c1nc(C)nc2oc(C)cc12 [Compound 10, 4-(6-methoxy-3,4-dihydroquinolin-1(2H)-yl)-2,6-dimethylfuro[2,3-d]pyrimidine]	< 10	< 10	< 10	< 10	< 10	13	< 10	< 10	16.8	< 10	GI50 [14]: < 10 nM; GI50 [15]: < 10 nM; GI50 [16]: < 10 nM; Inhibition of colchicine binding % inhibition ± SD ([17]; 1 μM): 82 ± 3%; Inhibition of colchicine binding % inhibition ± SD ([17]; 5 μM): 96 ± 1%; GI50 [18]: < 10 nM; GI50 [19]: < 10 nM; GI50 [20]: < 10 nM
